Measured values published in patent US20070105115A1, “Promoter of the human fatp5 gene and uses” (MERCK SANTE, priority 2003, published 2007).

What was measured:
[1] = test system: FATP5; experiment: Hepatic FATP5 expression (Northern blotting) in ZDF rats treated with LGD 1069; format: in vivo, rat; conditions: LGD 1069 in food 0.3-30 mg/kg/day for 50 days from age 7 weeks; Northern blot; FIG. 15
Protocol: Male diabetic fatty rats (Zucker diabetic fatty rats (ZDF rats)) are kept in an animal house with free access to food and water, the nyctohemeral rhythm being observed.
(§1) The compound LGD 1069 is added to the food at a dose of 0.3, 1.0, 3.0, 10 or 30 mg/kg/day and administered for 50 days as from the age of 7 weeks. 4 animals are fed without the addition of LGD 1069: 2 ZDF and 2 ZLC. The animals are fasted and sacrificed the next day. The tissues are collected and frozen immediately in liquid nitrogen.
The hepatic RNAs are extracted by the conventional technique derived from Chomczynski and Sacchi. The expression is analysed by Northern blotting with hybridization using a radioactive cDNA probe specific for FATP5.

[2] = test system: ZDF rats; experiment: Reversal of the diabetic phenotype in the ZDF rat by an insulin sensitizer; format: in vivo; conditions: LGD 1069 in food 0.3-30 mg/kg/day for 50 days from age 7 weeks
Protocol: as §1, with “Male diabetic fatty rats (Zucker diabetic fatty rats (ZDF rats)) are kept in an animal house with free access to food and water, the nyctohemeral rhythm being observed. The compound” for “The compound”

Which results are given for C=C(c1ccc(C(=O)O)cc1)c1cc2c(cc1C)C(C)(C)CCC2(C)C [RXR agonist, bexarotene]?
Negative regulation of the expression of FATP5 in the liver of ZDF rats compared with ZLC rats [1]: counteracted; development of diabetes [2]: reverses the development of diabetes
